Reference: the supplement of paper PMC8741786
In brackets after ≈: the same amount, converted by molar mass.

How the values were obtained:
Test in all cases: minimum inhibitory concentration (ETEST)
[1] = test system: Neisseria mucosa/macacae
Protocol: (§1)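 Oropharyngeal Neisseria isolates from MSM and employees in Belgium were identified to species by MALDI-TOF MS. MICs of azithromycin, ceftriaxone and ciprofloxacin were determined by ETEST on GC agar after 24 h at 36.5 °C and 5-7% CO2, in mg/L. Values beyond the strip range are reported as >256 (azithromycin) or <0.016 (ceftriaxone); isolates that did not grow are NA.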

[2] = test system: Neisseria meningitidis
Protocol: as §1

[3] = test system: Neisseria subflava/flavescens/perflava
Protocol: as §1

CC[C@H]1OC(=O)[C@H](C)[C@@H](O[C@H]2C[C@@](C)(OC)[C@@H](O)[C@H](C)O2)[C@H](C)[C@@H](O[C@@H]2O[C@H](C)C[C@H](N(C)C)[C@H]2O)[C@](C)(O)C[C@@H](C)CN(C)[C@H](C)[C@@H](O)[C@]1(C)O [azithromycin]
Settings	minimum inhibitory concentration [µg/mL]
[1], isolate id (sample isolate): 19041762_2, population: MSM, antibiotic use in previous 6 months: Yes	3 (≈ 4.01 µM)
[1], isolate id (sample isolate): 19051904_1, population: MSM, antibiotic use in previous 6 months: Yes	2 (≈ 2.67 µM)
[1], isolate id (sample isolate): 19052394_2, population: MSM, antibiotic use in previous 6 months: Yes	4 (≈ 5.34 µM)
[1], isolate id (sample isolate): 19062968_1, population: MSM, antibiotic use in previous 6 months: Yes	16 (≈ 21.4 µM)
[1], isolate id (sample isolate): 19081774_2, population: MSM, antibiotic use in previous 6 months: No	24 (≈ 32 µM)
[1], isolate id (sample isolate): 19111422_4, population: MSM, antibiotic use in previous 6 months: No	1.5 (≈ 2 µM)
[1], isolate id (sample isolate): 19111422_7, population: MSM, antibiotic use in previous 6 months: No	1 (≈ 1.34 µM)
[1], isolate id (sample isolate): Co000770_5, population: general population, antibiotic use in previous 6 months: No	3 (≈ 4.01 µM)
[1], isolate id (sample isolate): Co000771_4, population: general population, antibiotic use in previous 6 months: No	6 (≈ 8.01 µM)
[1], isolate id (sample isolate): Co000772_3, population: general population, antibiotic use in previous 6 months: No	4 (≈ 5.34 µM)
[1], isolate id (sample isolate): Co000773_3, population: general population, antibiotic use in previous 6 months: No	2 (≈ 2.67 µM)
[1], isolate id (sample isolate): Co000779_1, population: general population, antibiotic use in previous 6 months: No	2 (≈ 2.67 µM)
[1], isolate id (sample isolate): Co000783_3, population: general population, antibiotic use in previous 6 months: No	6 (≈ 8.01 µM)
[1], isolate id (sample isolate): Co000783_6, population: general population, antibiotic use in previous 6 months: No	32 (≈ 42.7 µM)
[1], isolate id (sample isolate): Co000787_3, population: general population, antibiotic use in previous 6 months: No	4 (≈ 5.34 µM)
[1], isolate id (sample isolate): Co000788_1, population: general population, antibiotic use in previous 6 months: No	2 (≈ 2.67 µM)
[1], isolate id (sample isolate): Co000788_4, population: general population, antibiotic use in previous 6 months: No	4 (≈ 5.34 µM)
[2], isolate id (sample isolate): 19040471_1, population: MSM, antibiotic use in previous 6 months: No	0.38 (≈ 0.507 µM)
[2], isolate id (sample isolate): 19040855_1, population: MSM, antibiotic use in previous 6 months: No	0.25 (≈ 0.334 µM)
[2], isolate id (sample isolate): 19040874_2, population: MSM, antibiotic use in previous 6 months: No	2 (≈ 2.67 µM)
[2], isolate id (sample isolate): 19040900_2, population: MSM, antibiotic use in previous 6 months: No	0.75 (≈ 1 µM)
[2], isolate id (sample isolate): 19042150_2, population: MSM, antibiotic use in previous 6 months: Yes	1.5 (≈ 2 µM)
[2], isolate id (sample isolate): 19042756_3, population: MSM, antibiotic use in previous 6 months: Yes	0.38 (≈ 0.507 µM)
[2], isolate id (sample isolate): 19043201_1, population: MSM, antibiotic use in previous 6 months: No	0.75 (≈ 1 µM)
[2], isolate id (sample isolate): 19043201_2, population: MSM, antibiotic use in previous 6 months: No	0.38 (≈ 0.507 µM)
[2], isolate id (sample isolate): 19043274_1, population: MSM, antibiotic use in previous 6 months: Yes	0.5 (≈ 0.668 µM)
[2], isolate id (sample isolate): 19043274_2, population: MSM, antibiotic use in previous 6 months: Yes	0.38 (≈ 0.507 µM)
[2], isolate id (sample isolate): 19051853_1, population: MSM, antibiotic use in previous 6 months: No	0.38 (≈ 0.507 µM)
[2], isolate id (sample isolate): 19052394_3, population: MSM, antibiotic use in previous 6 months: Yes	0.5 (≈ 0.668 µM)
[2], isolate id (sample isolate): 19052434_1, population: MSM, antibiotic use in previous 6 months: Yes	0.75 (≈ 1 µM)
[2], isolate id (sample isolate): 19060069_1, population: MSM, antibiotic use in previous 6 months: Yes	1 (≈ 1.34 µM)
[2], isolate id (sample isolate): 19060069_2, population: MSM, antibiotic use in previous 6 months: Yes	1 (≈ 1.34 µM)
[2], isolate id (sample isolate): 19060089_2, population: MSM, antibiotic use in previous 6 months: Yes	4 (≈ 5.34 µM)
[2], isolate id (sample isolate): 19061666_1, population: MSM, antibiotic use in previous 6 months: Yes	3 (≈ 4.01 µM)
[2], isolate id (sample isolate): 19062990_1, population: MSM, antibiotic use in previous 6 months: Yes	0.5 (≈ 0.668 µM)
[2], isolate id (sample isolate): 19070019_2, population: MSM, antibiotic use in previous 6 months: No	0.38 (≈ 0.507 µM)
[2], isolate id (sample isolate): 19070019_4, population: MSM, antibiotic use in previous 6 months: No	0.38 (≈ 0.507 µM)
[2], isolate id (sample isolate): 19070047_1, population: MSM, antibiotic use in previous 6 months: No	0.5 (≈ 0.668 µM)
[2], isolate id (sample isolate): 19082621_2, population: MSM, antibiotic use in previous 6 months: No	0.5 (≈ 0.668 µM)
[2], isolate id (sample isolate): 19091461_1, population: MSM, antibiotic use in previous 6 months: No	6 (≈ 8.01 µM)
[2], isolate id (sample isolate): 19091461_2, population: MSM, antibiotic use in previous 6 months: No	4 (≈ 5.34 µM)
[2], isolate id (sample isolate): 19091973_1, population: MSM, antibiotic use in previous 6 months: No	0.5 (≈ 0.668 µM)
[2], isolate id (sample isolate): 19092429_3, population: MSM, antibiotic use in previous 6 months: No	0.38 (≈ 0.507 µM)
[2], isolate id (sample isolate): 19103457_1, population: MSM, antibiotic use in previous 6 months: No	0.38 (≈ 0.507 µM)
[2], isolate id (sample isolate): 19103457_4, population: MSM, antibiotic use in previous 6 months: No	0.25 (≈ 0.334 µM)
[2], isolate id (sample isolate): 19110394_1, population: MSM, antibiotic use in previous 6 months: No	0.5 (≈ 0.668 µM)
[2], isolate id (sample isolate): 19113049_3, population: MSM, antibiotic use in previous 6 months: No	0.19 (≈ 0.254 µM)
[2], isolate id (sample isolate): 19113049_6, population: MSM, antibiotic use in previous 6 months: No	0.25 (≈ 0.334 µM)
[2], isolate id (sample isolate): Co000765_1, population: general population, antibiotic use in previous 6 months: No	0.5 (≈ 0.668 µM)
[2], isolate id (sample isolate): Co000790_1, population: general population, antibiotic use in previous 6 months: No	2 (≈ 2.67 µM)
[2], isolate id (sample isolate): Co000790_3, population: general population, antibiotic use in previous 6 months: No	1 (≈ 1.34 µM)
[3], isolate id (sample isolate): 19041762_1, population: MSM, antibiotic use in previous 6 months: Yes	> 256
[3], isolate id (sample isolate): 19041762_1.1, population: MSM, antibiotic use in previous 6 months: Yes	> 256
[3], isolate id (sample isolate): 19041780_1, population: MSM, antibiotic use in previous 6 months: Yes	> 256
[3], isolate id (sample isolate): 19042150_1, population: MSM, antibiotic use in previous 6 months: Yes	64 (≈ 85.4 µM)
[3], isolate id (sample isolate): 19042150_3, population: MSM, antibiotic use in previous 6 months: Yes	> 256
[3], isolate id (sample isolate): 19042756_1, population: MSM, antibiotic use in previous 6 months: Yes	> 256
[3], isolate id (sample isolate): 19042756_2, population: MSM, antibiotic use in previous 6 months: Yes	> 256
[3], isolate id (sample isolate): 19043201_1.1, population: MSM, antibiotic use in previous 6 months: No	96 (≈ 128 µM)
[3], isolate id (sample isolate): 19043201_2.1, population: MSM, antibiotic use in previous 6 months: No	> 256
[3], isolate id (sample isolate): 19043201_3, population: MSM, antibiotic use in previous 6 months: No	96 (≈ 128 µM)
[3], isolate id (sample isolate): 19043274_3, population: MSM, antibiotic use in previous 6 months: Yes	128 (≈ 171 µM)
[3], isolate id (sample isolate): 19050474_1, population: MSM, antibiotic use in previous 6 months: No	8 (≈ 10.7 µM)
[3], isolate id (sample isolate): 19050514_1, population: MSM, antibiotic use in previous 6 months: Yes	> 256
[3], isolate id (sample isolate): 19050949_1, population: MSM, antibiotic use in previous 6 months: No	3 (≈ 4.01 µM)
[3], isolate id (sample isolate): 19050949_2, population: MSM, antibiotic use in previous 6 months: No	4 (≈ 5.34 µM)
[3], isolate id (sample isolate): 19050949_2.1, population: MSM, antibiotic use in previous 6 months: No	4 (≈ 5.34 µM)
[3], isolate id (sample isolate): 19051904_2, population: MSM, antibiotic use in previous 6 months: Yes	2 (≈ 2.67 µM)
[3], isolate id (sample isolate): 19051904_3, population: MSM, antibiotic use in previous 6 months: Yes	1.5 (≈ 2 µM)
[3], isolate id (sample isolate): 19052394_1, population: MSM, antibiotic use in previous 6 months: Yes	2 (≈ 2.67 µM)
[3], isolate id (sample isolate): 19052394_1.1, population: MSM, antibiotic use in previous 6 months: Yes	1.5 (≈ 2 µM)
[3], isolate id (sample isolate): 19060089_1, population: MSM, antibiotic use in previous 6 months: Yes	8 (≈ 10.7 µM)
[3], isolate id (sample isolate): 19062994_1, population: MSM, antibiotic use in previous 6 months: Yes	2 (≈ 2.67 µM)
[3], isolate id (sample isolate): Co000761_2, population: general population, antibiotic use in previous 6 months: No	2 (≈ 2.67 µM)
[3], isolate id (sample isolate): Co000761_3, population: general population, antibiotic use in previous 6 months: No	4 (≈ 5.34 µM)
